Data: patent US7109354B2, “Thiophene amidines, compositions thereof, and methods of treating complement-mediated diseases and conditions” (3-Dimensional Pharmaceuticals, Inc., priority 2002, dated 2006)
Counter-ions that a name gives are not always drawn.

Target: T1, Activated human C1s (Homo sapiens, UniProt P09871)
T1 construct: purchased Calbiochem (La Jolla, Calif.)
T1 sequence (P09871 438-688 limits assumed): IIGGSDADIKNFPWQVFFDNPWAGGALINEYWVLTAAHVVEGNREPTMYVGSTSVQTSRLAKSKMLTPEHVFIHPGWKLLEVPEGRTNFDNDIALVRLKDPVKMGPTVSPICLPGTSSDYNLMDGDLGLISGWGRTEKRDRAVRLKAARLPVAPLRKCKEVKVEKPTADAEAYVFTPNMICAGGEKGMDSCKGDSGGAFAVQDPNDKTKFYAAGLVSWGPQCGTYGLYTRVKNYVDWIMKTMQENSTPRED
T1 sequence (P09871 16-437 partner limits assumed): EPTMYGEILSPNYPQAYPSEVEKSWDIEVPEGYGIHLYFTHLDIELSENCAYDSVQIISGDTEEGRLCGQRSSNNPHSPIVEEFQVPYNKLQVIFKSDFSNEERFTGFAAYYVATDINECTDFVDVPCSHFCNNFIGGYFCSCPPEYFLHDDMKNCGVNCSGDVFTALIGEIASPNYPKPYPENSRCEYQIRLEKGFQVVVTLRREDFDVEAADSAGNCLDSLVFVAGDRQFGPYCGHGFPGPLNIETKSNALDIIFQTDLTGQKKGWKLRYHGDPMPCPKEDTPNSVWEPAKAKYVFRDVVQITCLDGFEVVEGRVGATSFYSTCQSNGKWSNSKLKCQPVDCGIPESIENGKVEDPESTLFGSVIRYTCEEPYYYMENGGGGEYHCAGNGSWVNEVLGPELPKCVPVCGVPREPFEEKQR
Experiment: In vitro inhibition of C1s (Ki determination, C1s-catalyzed hydrolysis of Z-Gly-Arg-S-Bzl, DTNB readout)
Format: biochemical
Details: substrate Z-Gly-Arg-S-Bzl 45 μM, DTNB 200 μM, C1s 2.3 nM, pH 7.5, 37° C., absorbance at 405 nm

Ki | Compound
6 to 23 nM | CSc1sc(C(=N)N)cc1S(=O)(=O)c1cccc(-c2ccc(NC(=O)[C@@H](N)CCC(=O)O)cc2C)c1 [Example 231, 4-Amino-4-[3′-(5-carbamimidoyl-2-methylsulfanyl-thiophene-3-sulfonyl)-2-methyl-biphenyl-4-ylcarbamoyl]-butyric acid bis-trifluoroacetate]
6 to 23 nM | CSc1sc(C(=N)N)cc1S(=O)(=O)c1cccc(-c2ccc(NC3=NCCN3)cc2C)c1 [Example 233, 4-[4′-(4,5-Dihydro-1H-imidazol-2-ylamino)-2′-methyl-biphenyl-3-sulfonyl]-5-methylsulfanyl-thiophene-2-carboxamidine bis-trifluoroacetate]
6 to 23 nM | CSc1sc(C(=N)N)cc1S(=O)(=O)c1cccc(-c2c(C)cc(NC(=N)N)cc2[N+](=O)[O-])c1 [Example 236, 4-(4′-Guanidino-2′-methyl-6′-nitro-biphenyl-3-sulfonyl)-5-methylsulfanyl-thiophene-2-carboxamidine bis-trifluoroacetate]
6 to 23 nM | CSc1sc(C(=N)N)cc1S(=O)(=O)c1cccc(-c2c(C)cc(NC(=N)N)cc2N)c1 [Example 237, 4-(6′-Amino-4′-guanidino-2′-methyl-biphenyl-3-sulfonyl)-5-methylsulfanyl-thiophene-2-carboxamidine bis-trifluoroacetate]
6 to 23 nM | COC(=O)CCSCC(=O)Nc1cc(NC(=N)N)cc(C)c1-c1cccc(S(=O)(=O)c2cc(C(=N)N)sc2SC)c1 [Example 238, 3-{[3′-(5-Carbamimidoyl-2-methylsulfanyl-thiophene-3-sulfonyl)-4-guanidino-6-methyl-biphenyl-2-ylcarbamoyl]-methylsulfanyl}-propionic acid methyl ester bis-trifluoroacetate]
6 to 23 nM | CSc1sc(C(=N)N)cc1S(=O)(=O)c1cccc(-c2c(C)cc(NC(=N)N)cc2NC(=O)CSCCC(=O)O)c1 [Example 239, 3-{[3′-(5-Carbamimidoyl-2-methylsulfanyl-thiophene-3-sulfonyl)-4-guanidino-6-methyl-biphenyl-2-ylcarbamoyl]-methylsulfanyl}-propionic acid bis-trifluoroacetate]
6 to 23 nM | CSc1sc(C(=N)N)cc1S(=O)(=O)c1cccc(-c2c(C)cccc2NC(=O)NCCCCCC(=O)O)c1 [Example 240, 6-{3-[3′-(5-Carbamimidoyl-2-methylsulfanyl-thiophene-3-sulfonyl)-6-methyl-biphenyl-2-yl]-ureido}-hexanoic acid trifluoroacetate]
6 to 23 nM | CSc1sc(C(=N)N)cc1S(=O)(=O)c1cccc(-c2c(C)cccc2NC(=O)NCCc2ccccc2)c1 [Example 242, 4-[2′-Methyl-6′-(3-phenethyl-ureido)-biphenyl-3-sulfonyl]-5-methylsulfanyl-thiophene-2-carboxamidine trifluoroacetate]
6 to 23 nM | CSc1sc(C(=N)N)cc1S(=O)(=O)c1cccc(-c2c(C)cccc2NC(=O)CSCC(N)=O)c1 [Example 246, 2-{[3′-(5-Carbamimidoyl-2-methylsulfanyl-thiophene-3-sulfonyl)-6-methyl-biphenyl-2-ylcarbamoyl]-methylsulfanyl}-acetamide trifluoroacetate]
6 to 23 nM | COc1cc(C)c(-c2cccc(S(=O)(=O)c3cc(C(=N)N)sc3SC)c2)c(NC(=O)CSCCC(=O)O)c1 [Example 252, 3-{[3′-(5-Carbamimidoyl-2-methylsulfanyl-thiophene-3-sulfonyl)-4-methoxy-6-methyl-biphenyl-2-ylcarbamoyl]-methylsulfanyl}-propionic acid trifluoroacetate]
6 to 23 nM | COc1cc(C)c(-c2cccc(S(=O)(=O)c3cc(C(=N)N)sc3SC)c2)c(NC(=O)CS(C)(=O)=O)c1 [Example 254, N-[3′-(5-Carbamimidoyl-2-methylsulfanyl-thiophene-3-sulfonyl)-4-methoxy-6-methyl-biphenyl-2-yl]-2-methanesulfonyl-acetamide trifluoroacetate]
